Where a name gives a salt, the structure may show the parent alone.
The compounds below were run on Jurkat HIV-luciferase clones (assay: Jurkat latency reversal assay). Settings: Homo sapiens, Jurkat, 48 h.
Type: cell-based
Procedure: Jurkat HIV-luciferase clones were maintained in RPMI medium 1640 (Gibco by Life Technologies) containing 10% (vol/vol) fetal bovine serum (SAFC/Sigma-Aldrich) and 25 units/mL penicillin, 25 units/mL streptomycin (Gibco by Life Technologies), and were split 1:4 every 3 to 4 days to maintain a cell density of ˜0.3 to 1 million cells/mL. The Jurkat clones were maintained with the addition of 500 nM EFV in the medium. Three Jurkat cell clones (C16, I15, and N6), each harboring one or two integrated HIV proviruses expressing the luciferase reporter gene, were added at equal amounts for a total of 5,000 cells per well to 384-well plates containing compound titrations. Dose-response testing was performed on compounds dissolved in dimethyl sulfoxide (DMSO, Fisher Scientific, Merelbeke, Belgium) dispensed in duplicate serial 3-fold, 14-point titrations using a D300e Digital Droplet Dispenser (Hewlett-Packard) to give final assay concentrations of 10 μM to 2.1 pM in 50 μL of medium at 0.5% DMSO (vol/vol) final concentration. Cells and compound were incubated at 37° C. for 48 hours, unless otherwise indicated, followed by the addition of 20 μL of Steady-Glo® Luciferase (Promega). Luminescence resulting from the induction of the virally expressed luciferase was measured using an EnVision 2102 Multilabel Plate Reader (Perkin Elmer). Dose-response relationships were analyzed with GraphPad PRISM 6 using a four-parameter logistic regression model to calculate the concentration of compound that gives half-maximal response (EC50) and the maximal percent activation compared to the vehicle control.

**Q.** Which EC50 does the source give for `CN[C@@H](C)C(=O)N[C@H]1CCS[C@H]2CC(C)(C)[C@@H](C(=O)N[C@H](C(=O)NCc3ccc(CNC(=O)[C@@H](NC(=O)[C@H]4N5C(=O)[C@@H](NC(=O)[C@H](C)NC)CCS[C@H]5CC4(C)C)c4ccccc4)cc3)c3ccccc3)N2C1=O` [compound 24, (4S,4′S,7S,7′S,9aS,9a′S)-N,N′-((1S,1′S)-((1,4-phenylenebis(methylene))bis(azanediyl))bis(2-oxo-1-phenylethane-2,1-diyl))bis(8,8-dimethyl-4-((S)-2-(methylamino)propanamido)-5-oxooctahydropyrrolo[2,1-b][1,3]thiazepine-7-carboxamide)] here?
**A.** Its EC50 is 47.9 nM.

**Q.** Which EC50 does the source give for `CN[C@@H](C)C(=S)N[C@H]1CCS[C@H]2CC(C)(C)[C@@H](C(=O)N[C@H](C(=O)NCc3ccc(CNC(=O)[C@@H](NC(=O)[C@H]4N5C(=O)[C@@H](NC(=S)[C@H](C)NC)CCS[C@H]5CC4(C)C)c4ccccc4)cc3)c3ccccc3)N2C1=O` [compound 25, (4S,4′S,7S,7′S,9aS,9a′S)-N,N′-((1S,1′S)-((1,4-phenylenebis(methylene))bis(azanediyl))bis(2-oxo-1-phenylethane-2,1-diyl))bis(8,8-dimethyl-4-((S)-2-(methylamino)propanethioamido)-5-oxooctahydropyrrolo[2,1-b][1,3]thiazepine-7-carboxamide) dihydrochloride] here?
**A.** The EC50 was 61.8 nM.

**Q.** `CN[C@@H](C)C(=O)N[C@H]1CCS[C@H]2CC(C)(C)[C@@H](C(=O)N[C@H](C(=O)N3CCN(C(=O)[C@@H](NC(=O)[C@H]4N5C(=O)[C@@H](NC(=O)[C@H](C)NC)CCS[C@H]5CC4(C)C)c4ccccc4)CC3)c3ccccc3)N2C1=O` [compound 26, (4S,4′S,7S,7′S,9aS,9a′S)-N,N′-((1S,1′S)-piperazine-1,4-diylbis(2-oxo-1-phenylethane-2,1-diyl))bis(8,8-dimethyl-4-((S)-2-(methylamino)propanamido)-5-oxooctahydropyrrolo[2,1-b][1,3]thiazepine-7-carboxamide) dihydrochloride] was tested. Which EC50 did it give?
**A.** Its EC50 is 69.1 nM.

**Q.** With `CN[C@@H](C)C(=S)N[C@H]1CCS[C@H]2CC(C)(C)[C@@H](C(=O)N[C@H](C(=O)N3CCN(C(=O)[C@@H](NC(=O)[C@H]4N5C(=O)[C@@H](NC(=S)[C@H](C)NC)CCS[C@H]5CC4(C)C)c4ccccc4)CC3)c3ccccc3)N2C1=O` [compound 27, (4S,4′S,7S,7′S,9aS,9a′S)-N,N′-((1S,1′S)-piperazine-1,4-diylbis(2-oxo-1-phenylethane-2,1-diyl))bis(8,8-dimethyl-4-((S)-2-(methylamino)propanethioamido)-5-oxooctahydropyrrolo[2,1-b][1,3]thiazepine-7-carboxamide) dihydrochloride] as the compound, how does the EC50 read?
**A.** Its EC50 is 52.2 nM.

**Q.** For `CN[C@@H](C)C(=O)N[C@H]1CCS[C@H]2CC(C)(C)[C@@H](C(=O)N[C@H](C(=O)NCC#CC#CCNC(=O)[C@@H](NC(=O)[C@H]3N4C(=O)[C@@H](NC(=O)[C@H](C)NC)CCS[C@H]4CC3(C)C)c3ccccc3)c3ccccc3)N2C1=O` [compound 30, (4S,4′S,7S,7′S,9aS,9a′S)-N,N′-((1S,1′S)-(hexa-2,4-diyne-1,6-diylbis(azanediyl))bis(2-oxo-1-phenylethane-2,1-diyl))bis(8,8-dimethyl-4-((S)-2-(methylamino)propanamido)-5-oxooctahydropyrrolo[2,1-b][1,3]thiazepine-7-carboxamide) dihydrochloride], which EC50 is on record?
**A.** The EC50 was 65.4 nM.

**Q.** How did the EC50 turn out when `CN[C@@H](C)C(=O)N[C@H]1CCS[C@H]2CC(C)(C)[C@@H](C(=O)N[C@H](C(=O)NCC#CC#CCNC(=O)[C@@H](NC(=O)[C@H]3N4C(=O)[C@@H](NC(=S)[C@H](C)NC)CCS[C@H]4CC3(C)C)c3ccccc3)c3ccccc3)N2C1=O` [compound 31, (4S,7S,9aS)-N-((S)-2-((6-((S)-2-((4S,7S,9aS)-8,8-dimethyl-4-((S)-2-(methylamino)propanamido)-5-oxooctahydropyrrolo[2,1-b][1,3]thiazepine-7-carboxamido)-2-phenylacetamido)hexa-2,4-diyn-1-yl)amino)-2-oxo-1-phenylethyl)-8,8-dimethyl-4-((S)-2-(methylamino)propanethioamido)-5-oxooctahydropyrrolo[2,1-b][1,3]thiazepine-7-carboxamide dihydrochloride] was run?
**A.** The EC50 was 25.8 nM.

**Q.** `CN[C@@H](C)C(=S)N[C@H]1CCS[C@H]2CC(C)(C)[C@@H](C(=O)N[C@H](C(=O)NCC#CC#CCNC(=O)[C@@H](NC(=O)[C@H]3N4C(=O)[C@@H](NC(=S)[C@H](C)NC)CCS[C@H]4CC3(C)C)c3ccccc3)c3ccccc3)N2C1=O` [compound 32, (4S,4′S,7S,7′S,9aS,9a′S)-N,N′-((1S,1′S)-(hexa-2,4-diyne-1,6-diylbis(azanediyl))bis(2-oxo-1-phenylethane-2,1-diyl))bis(8,8-dimethyl-4-((S)-2-(methylamino)propanethioamido)-5-oxooctahydropyrrolo[2,1-b][1,3]thiazepine-7-carboxamide)] was tested. Which EC50 did it give?
**A.** The EC50 was 166 nM.

**Q.** How did the EC50 turn out when `CN[C@@H](C)C(=O)N[C@H]1CCS[C@H]2CC(C)(C)[C@@H](C(=O)N[C@H](COCC#CC#CCOC[C@@H](NC(=O)[C@H]3N4C(=O)[C@@H](NC(=S)[C@H](C)NC)CCS[C@H]4CC3(C)C)c3ccccc3)c3ccccc3)N2C1=O` [compound 34, (4S,7S,9aS)-N-((S)-2-((6-((S)-2-((4S,7S,9aS)-8,8-dimethyl-4-((S)-2-(methylamino)propanamido)-5-oxooctahydropyrrolo[2,1-b][1,3]thiazepine-7-carboxamido)-2-phenylethoxy)hexa-2,4-diyn-1-yl)oxy)-1-phenylethyl)-8,8-dimethyl-4-((S)-2-(methylamino)propanethioamido)-5-oxooctahydropyrrolo[2,1-b][1,3]thiazepine-7-carboxamide] was run?
**A.** The EC50 was 36.3 nM.

**Q.** With `CN[C@@H](C)C(=S)N[C@H]1CCS[C@H]2CC(C)(C)[C@@H](C(=O)N[C@H](COCC#CC#CCOC[C@@H](NC(=O)[C@H]3N4C(=O)[C@@H](NC(=S)[C@H](C)NC)CCS[C@H]4CC3(C)C)c3ccccc3)c3ccccc3)N2C1=O` [compound 35, (4S,4′S,7S,7′S,9aS,9a′S)-N,N′-((1S,1′S)-(hexa-2,4-diyne-1,6-diylbis(oxy))bis(1-phenylethane-2,1-diyl))bis(8,8-dimethyl-4-((S)-2-(methylamino)propanethioamido)-5-oxooctahydropyrrolo[2,1-b][1,3]thiazepine-7-carboxamide)] as the compound, how does the EC50 read?
**A.** Its EC50 is 9 nM.

**Q.** Which EC50 does the source give for `CN[C@@H](C)C(=O)N[C@H]1CCS[C@H]2CC(C)(C)[C@@H](C(=O)N[C@H](COCCCCOC[C@@H](NC(=O)[C@H]3N4C(=O)[C@@H](NC(=O)[C@H](C)NC)CCS[C@H]4CC3(C)C)c3ccccc3)c3ccccc3)N2C1=O` [compound 36, (4S,4′S,7S,7′S,9aS,9a′S)-N,N′-((1S,1′S)-(butane-1,4-diylbis(oxy))bis(1-phenylethane-2,1-diyl))bis(8,8-dimethyl-4-((S)-2-(methylamino)propanamido)-5-oxooctahydropyrrolo[2,1-b][1,3]thiazepine-7-carboxamide) dihydrochloride] here?
**A.** The EC50 was 9.5 nM.

— patent publication US11492361B2, “Compounds useful in HIV therapy” (GlaxoSmithKline Intellectual Property Development Limited, priority 2018, dated 2022)
